Laboratory results reported in US20260151375A1, “CDK2 INHIBITORS AND METHODS OF USING THE SAME” (Cedilla Therapeutics, Inc., priority 2022, published 2026).

How the values were obtained:
Kuramochi cells = experiment: IncuCyte Kuramochi Assay (cell proliferation); type: cell-based; settings: 72 h, Kuramochi cells labeled with mApple-H2B, cell count, read-out: IncuCyte - Kuramochi RB-WT: IC50
Procedure: IncuCyte® assay was used to measure the effect of disclosed compounds on cell proliferation. Fluorescent microscopy images of cells were taken immediately after compound treatment and 72 hours later. Image analysis software was used to obtain cell counts as a function of compound concentration. Kuramochi cells labeled with mApple-H2B were seeded on 384-well assay-ready plates. Plates were placed in an IncuCyte® (Sartorius) and scanned at 0 and 72 hours. IncuCyte® software was used to count the number of fluorescent nuclei in each well. The fold change in cell count from 0 to 72 hours in wells treated with increasing compounds concentrations (10 pts, ½ log dilution, 20 μM top concentration) was normalized to DMSO control wells. The normalized cell counts were fit with dose response curves and a […] was calculated.

CDK2/Cyclin E1 = target: T1, CDK2/Cyclin E1 (Homo sapiens, UniProt P24941); experiment: Caliper Assay (LabChip EZ Reader mobility shift assay), inhibition of CDK2/Cyclin E1 activity; type: biochemical; settings: 2.5 nM CDK2/Cyclin E1(14-475), 100 μM ATP, 30 min preincubation; read-out: Caliper Assay (CDK2/CCNE1): IC50
T1 construct: purchased 14-475
Procedure: Inhibition of CDK2/Cyclin E1 activity in the presence of compounds of the present disclosure was evaluated using a Caliper LabChip® EZ Reader mobility shift assay. In the assay, activated CDK2/Cyclin E1 catalyzes the phosphorylation of a fluorescently tagged peptide 5-FAM-QSPKKG-CONH2 (PerkinElmer, FL Peptide 18) which induces a difference in capillary electrophoresis mobility. The peptide substrate and product were measured, and the conversion ratio was used to determine the inhibition (as % activity and IC50 values) of CDK2/Cyclin E1. Reactions contained 50 mM HEPES pH 7.5, 10 mM MgCl2, 1 mM EDTA, 2 mM DTT, 0.01% Brij35, 0.5 mg/mL BSA, 0.1% DMSO, 2.5 nM CDK2/Cyclin E1(14-475), 100 μM ATP, and 1.5 μM fluorescent peptide substrate.
Dose titrations of inhibitors in 100% DMSO were combined with 3.25 nM CDK2/Cyclin E1(14-475) and 130 μM of ATP in reaction buffer. The mixtures were incubated for 30 minutes before the addition of fluorescent peptide substrate to initiate the kinase reaction. The final conditions were 2.5 nM CDK2/Cyclin E1(14-475), 100 μM ATP, and 1.5 μM fluorescent peptide. The reactions were stopped after 100 minutes with the addition of EDTA (6 mM final EDTA concentration). The stopped reactions were analyzed on a Caliper LabChip© EZ Reader II. The conversion ratios were normalized to yield % activity, plotted against compound concentration, and fit to a four-parameter equation to determine the IC50 for each compound.

SMILES	IC50 (Kuramochi cells)	IC50 (CDK2/Cyclin E1)
CC1(C)C[C@@H]1C(=O)N1CC2(CN(C(=O)c3cncs3)CC2c2nnc(Cc3ccc4c(c3)OCCO4)o2)C1 (stereo partly shown) [I-27]	> 10 µM	0.1 to 1 µM
CC1(C)C[C@@H]1C(=O)N1CC2(CN(C(=O)c3cncs3)CC2c2nnc(CCc3ccc(Cl)c(Cl)c3)o2)C1 (stereo partly shown) [I-28]	> 10 µM	0.1 to 1 µM
CC1(C)C[C@@H]1C(=O)N1CC2(CN(C(=O)c3cncs3)CC2c2nnc(Cc3cc[nH]n3)o2)C1 (stereo partly drawn) [I-29, (8-(5-((1H-pyrazol-3-yl)methyl)-1,3,4-oxadiazol-2-yl)-2-((S)-2,2-dimethylcyclopropane-1-carbonyl)-2,6-diazaspiro[3.4]octan-6-yl)(thiazol-5-yl)methanone]	> 10 µM	> 10 µM
CC1(C)C[C@@H]1C(=O)N1CC2(CN(C(=O)c3cncs3)CC2c2nnc(Cc3ccc(Cl)cc3)o2)C1 (stereo partly shown) [I-30]	> 10 µM	1 to 10 µM
CC1(C)C[C@@H]1C(=O)N1CC2(CN(C(=O)c3cncs3)CC2c2nnc(Cc3ccc(C4CCOCC4)c(Cl)c3)o2)C1 (stereo partly shown) [I-31]	> 10 µM	0.1 to 1 µM
CC1(C)C[C@@H]1C(=O)N1CC2(CN(C(=O)c3cncs3)CC2c2nnc(Cc3cccc4c3OCCO4)o2)C1 (stereo partly shown) [I-33]	> 10 µM	1 to 10 µM
COc1ccccc1C(F)(F)c1nnc(C2CN(C(=O)c3cncs3)CC23CN(C(=O)[C@H]2CC2(C)C)C3)o1 (stereo partly shown) [I-34]	> 10 µM	1 to 10 µM
CC1(C)C[C@@H]1C(=O)N1CC2(C1)CN(c1ncnc3ncsc13)CC2c1nnc(C(F)(F)c2ccc(Cl)cc2)o1 (stereo partly drawn) [I-37, (8-(5-((4-chlorophenyl)difluoromethyl)-1,3,4-oxadiazol-2-yl)-6-(thiazolo[4,5-d]pyrimidin-7-yl)-2,6-diazaspiro[3.4]octan-2-yl)((S)-2,2-dimethylcyclopropyl)methanone]	> 10 µM	1 to 10 µM
CC(C)(c1ccc(Cl)c(Cl)c1)c1nnc(C2CN(C(=O)c3cncs3)CC23CN(C(=O)[C@H]2CC2(C)C)C3)o1 (stereo partly shown) [I-39]	> 10 µM	0.1 to 1 µM
CC1(C)C[C@@H]1C(=O)N1CC2(CN(C(=O)c3cncs3)CC2c2nnc(C(F)(F)c3ccc(C4CC4)cc3)o2)C1 (stereo partly shown) [I-40]	> 10 µM	0.1 to 1 µM
O=C(c1cncs1)N1CC(c2nnc(Cc3ccc(Cl)c(Cl)c3)o2)C2(C1)CN(c1nc3ccccc3o1)C2 (stereo not shown) [I-41]	> 10 µM	> 10 µM
CCOc1cc(C)nn1C(C)c1nc(C2CN(C(=O)c3cncs3)CC23CN(C(=O)[C@H]2CC2(C)C)C3)no1 (stereo partly drawn) [I-42, (2-((S)-2,2-dimethylcyclopropane-1-carbonyl)-8-(5-(1-(5-ethoxy-3-methyl-1H-pyrazol-1-yl)ethyl)-1,2,4-oxadiazol-3-yl)-2,6-diazaspiro[3.4]octan-6-yl)(thiazol-5-yl)methanone]	> 10 µM	1 to 10 µM
CC1(C)C[C@@H]1C(=O)N1CC2(CN(C(=O)c3ccnnc3)CC2c2nnc(C(F)(F)c3ccc(Cl)c(Cl)c3)o2)C1 (stereo partly drawn) [I-43, (8-(5-((3,4-dichlorophenyl)difluoromethyl)-1,3,4-oxadiazol-2-yl)-2-((S)-2,2-dimethylcyclopropane-1-carbonyl)-2,6-diazaspiro[3.4]octan-6-yl)(pyridazin-4-yl)methanone]	> 10 µM	1 to 10 µM
CC1(C)C[C@@H]1C(=O)N1CC2(CN(C(=O)c3cnco3)CC2c2nnc(C(F)(F)c3ccc(Cl)c(Cl)c3)o2)C1 (stereo partly shown) [I-44]	> 10 µM	1 to 10 µM
CC1(C)C[C@@H]1C(=O)N1CC2(CN(C(=O)c3ncccn3)CC2c2nnc(C(F)(F)c3ccc(Cl)c(Cl)c3)o2)C1 (stereo partly shown) [I-46]	> 10 µM	> 10 µM
O=C(c1cncs1)N1CC(c2nnc(Cc3ccc(Cl)c(Cl)c3)o2)C2(C1)CN(c1ncc(C(F)(F)F)cn1)C2 (stereo not shown) [I-47]	> 10 µM	> 10 µM

SMILES	IC50 (Kuramochi cells)	IC50 (CDK2/Cyclin E1)
O=C(c1cncs1)N1CC(c2nnc(Cc3ccc(Cl)c(Cl)c3)o2)C2(C1)CN(c1ncccn1)C2 (stereo not shown) [I-49]	> 10 µM	> 10 µM
CC1(C)C[C@@H]1C(=O)N1CC2(CN(C(=O)c3cncs3)CC2c2nnc(Cc3nc(C4CCOCC4)ccc3F)o2)C1 (stereo partly drawn) [I-50, (2-((S)-2,2-dimethylcyclopropane-1-carbonyl)-8-(5-((3-fluoro-6-(tetrahydro-2H-pyran-4-yl)pyridin-2-yl)methyl)-1,3,4-oxadiazol-2-yl)-2,6-diazaspiro[3.4]octan-6-yl)(thiazol-5-yl)methanone]	> 10 µM	1 to 10 µM
CC1(C)C[C@@H]1C(=O)N1CC2(CN(C(=O)c3cncs3)CC2c2cn(Cc3ccc(Cl)c(Cl)c3)nn2)C1 (stereo partly drawn) [I-51, (8-(1-(3,4-dichlorobenzyl)-1H-1,2,3-triazol-4-yl)-2-((S)-2,2-dimethylcyclopropane-1-carbonyl)-2,6-diazaspiro[3.4]octan-6-yl)(thiazol-5-yl)methanone]	> 10 µM	> 10 µM
CC1(C)C[C@@H]1C(=O)N1CC2(CN(C(=O)c3cn[nH]c3)CC2c2nnc(C(F)(F)c3ccc(Cl)c(Cl)c3)o2)C1 (stereo partly shown) [I-52]	> 10 µM	0.1 to 1 µM
CC1(C)C[C@@H]1C(=O)N1CC2(CN(C(=O)c3cccnn3)CC2c2nnc(C(F)(F)c3ccc(Cl)c(Cl)c3)o2)C1 (stereo partly shown) [I-53]	> 10 µM	> 10 µM
CC1(C)C[C@@H]1C(=O)N1CC2(CN(C(=O)c3cnc(C(F)(F)F)s3)CC2c2nnc(C(F)(F)c3ccc(Cl)c(Cl)c3)o2)C1 (stereo partly shown) [I-54]	> 10 µM	> 10 µM
COc1ccc(C2CCOCC2)nc1Cc1nnc(C2CN(C(=O)c3cncs3)CC23CN(C(=O)[C@H]2CC2(C)C)C3)o1 (stereo partly shown) [I-55]	> 10 µM	0.1 to 1 µM
CC1(C)C[C@@H]1C(=O)N1CC2(CN(C(=O)c3cncnc3)CC2c2nnc(C(F)(F)c3ccc(Cl)c(Cl)c3)o2)C1 (stereo partly shown) [I-56]	> 10 µM	1 to 10 µM
CC(C)(C(=O)N1CC2(CN(C(=O)c3cncs3)CC2c2nnc(C(F)(F)c3ccc(Cl)c(Cl)c3)o2)C1)C(F)(F)F (stereo not shown) [I-57]	> 10 µM	0.1 to 1 µM
O=C(c1cncs1)N1CC(c2nnc(C(F)(F)c3ccc(Cl)c(Cl)c3)o2)C2(C1)CN(c1ncccn1)C2 (stereo not shown) [I-59, (8-(5-((3,4-dichlorophenyl)difluoromethyl)-1,3,4-oxadiazol-2-yl)-2-(pyrimidin-2-yl)-2,6-diazaspiro[3.4]octan-6-yl)(thiazol-5-yl)methanone]	> 10 µM	> 10 µM
O=C(c1cncs1)N1CC(c2nnc(Cc3ccc(Cl)c(Cl)c3)o2)C2(C1)CN(c1cccc[n+]1[O-])C2 (stereo not shown) [I-60]	> 10 µM	> 10 µM
CC1(C)C[C@@H]1C(=O)N1CC2(CN(C(=O)c3cncs3)CC2c2nnc(C3(c4ccc(Cl)c(Cl)c4)CC(O)C3)o2)C1 (stereo partly shown) [I-61]	> 10 µM	0.01 to 0.1 µM
CC(C)(c1coc(C2CCCC2)n1)c1nc(C2CN(C(=O)c3cncs3)CC23CN(C(=O)[C@H]2CC2(C)C)C3)no1 (stereo partly shown) [I-62]	5 to 10 µM	0.01 to 0.1 µM
Cc1cc(O)nn1C(C)c1nc(C2CN(C(=O)c3cncs3)CC23CN(C(=O)[C@H]2CC2(C)C)C3)no1 (stereo partly shown) [I-63]	> 10 µM	1 to 10 µM
CC(c1nc(C2CN(C(=O)c3cncs3)CC23CN(C(=O)[C@H]2CC2(C)C)C3)no1)n1cc(C2CCCC2)cn1 (stereo partly shown) [I-64]	> 10 µM	0.01 to 0.1 µM
CC1(C)C[C@@H]1C(=O)N1CC2(CN(C(=O)c3cncs3)CC2c2nnc(C(F)(F)c3ccc(Cl)cc3)o2)C1 (stereo partly shown) [I-65]	> 10 µM	1 to 10 µM
